SMILES strings stand for the structures. In brackets after ≈: the same amount, converted by molar mass.

The subject of test [1] is Sporobolomyces salmonicolor. As to the kind of experiment: Antimicrobial activity against Sporobolomyces salmonicolor 549 by agar diffusion method. The class given is functional.
The next test has as its system Staphylococcus aureus. Description: Antimicrobial activity against Staphylococcus aureus SG511 by agar diffusion method. The test is classed as functional. In general terms: In agar diffusion tests the substance spreads into inoculated agar from a disc or well.

As usually defined, the MIC is the smallest concentration in the dilution series that meets the test's criterion for growth inhibition. For `C=C1CC[C@H]2C(C)(C)[C@@H](O)CC[C@]2(C)[C@H]1CO` [ISODRIMENEDIOL], the figures for the MIC (in test [1]; in the test with Staphylococcus aureus) were 5 µg/mL (≈ 21 µM) and 10 µg/mL (≈ 42 µM), respectively.

Source of the values: ChEMBL document CHEMBL1158247, “Isolation of Isodrimenediol, a Possible Intermediate of Drimane Biosynthesis from Polyporus arcularius” (1996).
